Assay results: patent US6992095B2, “Stilbene compounds comprising an adamantyl group, compositions and methods thereof” (Galderma Research & Development, S.N.C., priority 1996, dated 2006)
Read-outs that look alike come from different tables or passages of the source.

System: mouse embryonic teratocarcinoma F9 cells
Test: mouse embryonic teratocarcinoma F9 cell differentiation test (antagonist activity)
Format: cell-based
Details: inhibition by 50% of agonist effect on secretion of plasminogen activator, CD 2043 at 10 nM, incubation for three days, read-out: Antagonist against CD 2043 (10 nM) F9 differentiation test IC50
Description: The compounds according to the invention show activity in the test of differentiation of mouse embryonic teratocarcinoma cells (F9) (Cancer Research, 43, 5268 (1983)) and/or in the test of inhibition of ornithine decarboxylase after induction with TPA in mice (Cancer Research, 38, 793–801 (1978)). These tests show the activities of these compounds in the fields of cell differentiation and cell proliferation, respectively. In the test of cell (F9) differentiation, […] to retinoic acid receptors. […] Some of these compounds are thus also active in a test which is used to identify molecules which are RAR antagonists, as described in French patent application No. 95/07302 filed on 19 Jun. 1995 by the same Assignee as the present invention, which is incorporated by reference in its entirety herein. […] Thus, the response to a topical application, to the ear of a mammal, of an RAR-agonist molecule, which corresponds to an increase in the thickness of this ear, may be inhibited by the systemic or topical administration of an RAR-antagonist molecule. In addition, some of these compounds may provide synergism to the biological activity of products binding to the nuclear receptors.
The antagonist activity of the compounds of formula (I) was evaluated in the mouse embryonic teratocarcinoma F9 cell differentiation test, (Cancer Research, 43, 5268 (1983)).
The F9 cells were inoculated in 12-well clusters, the compounds were tested at from 10^−9 to 10^−5 M in the presence of all-trans-retinoic acid or of a synthetic agonist retinoid, 4-(5,6,7,8-tetrahydro-5,5,8,8-tetramethyl-2-naphthylaminomethyl)benzoic acid (CD 2043), at 10^−8 M. After incubation for three days, the morphological observations were carried out and the concentration of the test compound which inhibits the agonist effect on the secretion of the plasminogen activator by 50% (IC50) was determined.

| Structure (SMILES) | IC50 (Mus musculus, F9, 72 h) [nM] | IC50 [nM] |
| --- | --- | --- |
| COCCOCOc1ccc(/C=C/c2ccc(C(=O)O)cc2)cc1C12CC3CC(CC(C3)C1)C2 [Example 2, 4-[(E)-2-(3-(1-Adamantyl)-4-methoxyethoxymethoxy-phenyl)ethenyl]benzoic acid] | 310 | – |
| COCCOCOc1ccc(/C(C)=C/c2ccc(C(=O)O)cc2)cc1C12CC3CC(CC(C3)C1)C2 [Example 4, 4-[(E)-2-(3-(1-Adamantyl)-4-methoxyethoxymethoxy-phenyl)-1-propenyl]benzoic acid] | 9 | – |
| COCCOCOc1ccc(/C(C)=C\c2ccc(C(=O)O)cc2)cc1C12CC3CC(CC(C3)C1)C2 [Example 5, 4-[(Z)-2-(3-(1-Adamantyl)-4-methoxyethoxymethoxy-phenyl)-1-prorenyl]benzoic acid] | – | 630 |
| COCCOCOc1ccc(/C(C)=C/c2ccc(C(=O)O)nc2)cc1C12CC3CC(CC(C3)C1)C2 [Example 7, 5-{2-[3-Adamant-1-yl-4-(2-methoxyethoxymethoxy)-phenyl]proxpen-(E)-yl}pyridine-2-carboxylic acid] | – | 600 |
| COCCOCOc1ccc(/C(C)=C/c2ccc(C(=O)O)cn2)cc1C12CC3CC(CC(C3)C1)C2 [Example 10, 6-{2-[3-Adamant-1-yl-4-(2-methoxyethoxymethoxy)-phenyl]proven-(E)-yl}nicotinic acid] | – | 35 |
